Measurements: patent US8609725B2, “Method of using beta-hydroxy-beta-methylbutyrate for reducing tumor growth rate” (Abbott Laboratories, priority 2004, dated 2013)

Experiments:
[1] = test system: gastrocnemius muscle of mice bearing the MAC16 tumor; assay: Protein synthesis and degradation in gastrocnemius muscle of MAC16 mice; format: in vivo
Protocol: Protein synthesis was measured by the incorporation of L-[4-3H]phenylalanine during a 2-hour period in which isolated gastrocnemius muscles were incubated at 37° C. in RPMI 1640 without phenol red and saturated with O2/CO2 (19:1). After incubation muscles were rinsed in nonradioactive medium, blotted dry, and homogenized in 4 mL 2% perchloric acid. The rate of protein synthesis was calculated by dividing the protein-bound radioactivity by the acid-soluble (unbound) material. For protein degradation assays animals from the same group as used to measure protein synthesis were given i.p. 0.4 mmol/L L-[4-3H]phenylalanine in PBS (100 μl) 24 hours prior to the assay. Isolated gastrocnemius muscles were extensively washed with PBS and RPMI 1640 before measuring the release of radioactivity into RPMI 1640 over a 2-hour period. The protein-bound activity was determined by homogenizing the muscles in 2% perchloric acid and determining the non-acid-soluble radioactivity (radioactivity in the precipitate). The rate of protein degradation was calculated by dividing the amount of [^3H]phenylalanine radioactivity released into the incubation medium during the 2-hour incubation period by the specific activity of protein-bound [^3H] phenylalanine.

rats and chicks = details: cited from earlier work
[2] = test system: ubiquitin-conjugating enzyme, E214k; assay: Western blotting of E214k in gastrocnemius muscle of MAC16 mice; format: in vivo, NMRI mice; details: HMB 0.25 g/kg, EPA 0.6 g/kg or combination, 3 days
Protocol: For Western blotting samples of soleus muscle cytosolic protein (2 to 5 μg), obtained from the above assay, were resolved on 10% SDS-PAGE and transferred to 0.45 μm nitrocellulose membrane (HybondTM, Amersham Life Science Products, Bucks, United Kingdom), which had been blocked with 5% Marvel in PBS. The primary antibodies for MSS1 and p42 were used at a dilution of 1:5000, for 20S proteasome α-subunits at 1:1500 and for β-subunits at 1:1000, while the antibody for […] was used at a dilution of 1:500. The secondary antibodies were used at a dilution of 1:2000. Mouse monoclonal antibodies to 20S proteasome subunits a 1, 2, 3, 5, 6 and 7 (clone MCP 231), 20S proteasome subunit β3 (HC10), 19S regulator ATPase subunit […]1; clone MSS1-104) and 19S regulator ATPase subunit Rpt 4 ([…], p42; clone p42-23) were purchased from Affiniti Research Products, Exeter, United Kingdom. Rabbit polyclonal antisera to ubiquitin-conjugating enzyme E2 (anti-UBC2 antibody) was a gift from Dr. Simon Wing, McGill University, Montreal, Quebec, Canada. Peroxidase-conjugated goat anti-rabbit and rabbit anti-mouse secondary antibodies were from Dako Ltd., Cambridge, United Kingdom. Incubation was carried out for 2 h at room temperature, and developed by chemiluminescence (ECL; Amersham).

I-κBα = assay: PIF-induced degradation of I-κBα in murine myotubes; format: cell-based; details: 50 μM HMB
Protocol: (§1) For Western blot analysis, cytosolic protein (2 to 5 μg) obtained for the above assay were resolved on 10% SDS-PAGE and transferred to 0.45 μm nitrocellulose membrane, which had been blocked with 5% Marvel in PBS, at 4° C. overnight. The primary antibodies were used at a dilution of 1:100 (anti-actin and PKCα); 1:500 (anti-ERK1 and 2); 1:1000 (anti-20S proteasome β-subunit and I-κBα); 1:1500 (anti-20S proteasome α-subunit) or 1:5000 (anti-p42), while the secondary antibodies were used at a dilution of 1:2000. Incubation was carried out for 2 h at room temperature and development was by ECL. Loading was quantitated by actin concentration. The in vitro study described in Example III above also evaluated the effect of HMB on molecules that are key mediators in the pathway of inflammation. This experiment was conducted as described in Example III.

[3] = test system: MSS1, an ATPase subunit of the 19S proteasome regulatory complex; assay: Western blotting of MSS1 in gastrocnemius muscle of MAC16 mice; format: in vivo, NMRI mice
NF-κB = NF-κB nuclear accumulation / binding to DNA (EMSA) in murine myotubes; format: cell-based
Protocol: DNA binding proteins were extracted from myotubes by the method of Andrews, N. C. et al. A rapid micropreparation technique for extraction of DNA-binding proteins from limiting numbers of mammalian cells. Nucleic Acids Res., 19: 2499, 1991, which utilizes hypotonic lysis followed by high salt extraction of nuclei. The EMSA (electrophoretic mobility shift assay) binding assay was carried out according to the manufacturer's instructions. The in vitro study described in Example III above also evaluated the effect of HMB on molecules that are key mediators in the pathway of inflammation. This experiment was conducted as described in Example III.

p42/44 MAPK (ERK1, ERK2) = assay: PIF-induced phosphorylation of ERK 1/2 (p42/44 MAPK) in murine myotubes; format: cell-based
Protocol: as §1, with “concentration.” for “concentration. The in vitro study described in Example III above also evaluated the effect of HMB on molecules that are key mediators in the pathway of inflammation. This experiment was conducted as described in Example III.”
The in vitro study described in Example III above also evaluated the effect of HMB on molecules that are key mediators in the pathway of inflammation. This experiment was conducted as described in Example III.

[4] = HMB 0.25 and 2.5 g/kg daily p.o., 3 days, vs PBS control
[5] = avg., 1996 abstract, normal rats and chicks

Question: Which “protein degradation in gastrocnemius muscle” value [1, 4] does the source give for `CC(C)(O)CC(=O)O` [HMB, beta-hydroxy-beta-methylbutyric acid] here?
Answer: attenuated

Question: And the “protein synthesis in gastrocnemius muscle” value [1, 4]?
Answer: significantly increased

Question: What about the “increase in the ratio of protein synthesis to protein degradation in muscle” value ([1]; HMB 0.25 g/kg) of the same molecule?
Answer: 14 fold

Question: And the “increase in the ratio of protein synthesis to protein degradation in muscle” value ([1]; HMB 2.5 g/kg)?
Answer: 32 fold

Question: And the “change of protein breakdown” value (rats and chicks; [5])?
Answer: −18%

Question: And the “stimulation of protein synthesis” value (rats and chicks; [5])?
Answer: 6%

Question: What about the “effect on protein synthesis” value (rats and chicks; later paper (2000), same model in rats and chicks) of the same molecule?
Answer: no significant effect

Question: And the “expression of E214k” value [2]?
Answer: reduced

Question: What about the “attenuation of I-κBα degradation in the presence of PIF” value (I-κBα) of the same molecule?
Answer: effectively attenuate

Question: And the “expression of MSS1” value ([3]; HMB 0.25 g/kg, EPA 0.6 g/kg or combination, 3 days)?
Answer: attenuated

Question: And the “reduction of protein expression of MSS1” value ([3]; summary of Examples I-IV)?
Answer: at least 50%

Question: What about the “inhibition of binding of NF-κB to DNA” value (NF-κB; 25 μM HMB) of the same molecule?
Answer: Only partial inhibition

Question: What about the “nuclear accumulation of NF-κB” value (NF-κB; 50 μM HMB) of the same molecule?
Answer: prevent nuclear accumulation of NF-κB

Question: And the “attenuation of PIF-induced phosphorylation of p42/44” value (p42/44 MAPK (ERK1, ERK2); 25 μM HMB)?
Answer: not HMB at 25 μM

Question: And the “attenuation of PIF-induced phosphorylation of p42/44” value (p42/44 MAPK (ERK1, ERK2); 50 μM)?
Answer: completely attenuated
